The conditions of data set [1]: Liquid; for mass density: 101.33 kPa, Pycnometric method; for vapor or sublimation pressure: Isoteniscope.
The nature of data set [2]: refractive index (Na D-line) (dimensionless). Conditions: 298.15 K; 101.33 kPa; Liquid; Standard Abbe refractometry.

Numbers after ± are expanded uncertainties.

As usually defined, the mass density is mass per unit of volume. In general, vapor or sublimation pressure refers to the equilibrium pressure above the liquid or solid. As usually defined, the refractive index is a measure of how strongly the sample bends light. As to `CC(Cl)(Cl)Cl` [1,1,1-trichloroethane], the mass density in data set [1] (298.15 K) amounted to 1328.7 ± 0.6 kg/m3. Besides, the “vapor or sublimation pressure” value in data set [1] (298.15 K) was found to be 16.64 ± 0.19 kPa; in data set [1] (308.15 K) it was 25.85 ± 0.22 kPa; in data set [1] (318.15 K), 37.61 ± 0.25 kPa. The refractive index in data set [2] amounted to 1.4354 ± 0.0004.
Consider `CCCCCl` [1-chlorobutane], for which the mass density in data set [1] (298.15 K) came to 880.9 ± 0.4 kg/m3. The “vapor or sublimation pressure” value in data set [1] (298.15 K) was 13.72 ± 0.15 kPa; in data set [1] (308.15 K), 20.66 ± 0.19 kPa; in data set [1] (318.15 K), 31.46 ± 0.23 kPa. Moreover, the refractive index in data set [2] is recorded as 1.3991 ± 0.0004.
For `O=C1CCCCC1` [cyclohexanone] the same measures were 943 ± 0.4 kg/m3, 0.64 ± 0.05 kPa, 1.16 ± 0.06 kPa, 1.92 ± 0.06 kPa and 1.4482 ± 0.0004.

The values above are taken from the NIST ThermoML archive (doi:10.1016/j.jct.2009.04.006).
